Assay results: publication PMC10686834, “Targeting myeloid chemotaxis to reverse prostate cancer therapy resistance” (Nature, 2023)
Where two headings read alike, the source gives them in different places.

Key:
blood neutrophils = experiment: Peripheral blood neutrophil counts and NLR on treatment; assay type: in vivo, human
Description: Secondary endpoints were:(i) the rate of objective response, with objective response defined as confirmed soft tissue objective response by Response Evaluation Criteria in Solid Tumors v.1.1 in those with measurable disease, and/or PSA decline ≥50% confirmed 4 weeks or later, and/or CTC count conversion from ≥5 per 7.5 ml of blood at baseline to <5 per 7.5 ml of blood at nadir; (ii) pharmacokinetic parameters, including maximum concentration, area under the concentration–time curve; and (iii) pharmacodynamic changes including identifying patients whose blood NLR, neutrophil, and intratumour myeloid cell density decrease. Exploratory endpoints included blood cytokine levels and evaluation of tumour molecular profile on response.
The association between myeloid cell densities and NLR was evaluated in two cohorts (Supplementary Table 1). Cohort 1 consisted of 48 mCRPC biopsies from patients treated at ICR/RMH, Oncology Institute of Southern Switzerland and Belfast City Hospital between 2012 and 2021. All patients provided informed consent, and enrolled onto institutional protocols approved by the local RECs (REC reference: 04/Q0801/60, 11/LO/2019). The validation cohort consisted of 57 mCRPC biopsies from patients treated at ICR/RMH between 2012 and 2016 under institutional protocols approved by the local REC (REC references: 04/Q0801/60, 2017-01002 CE TI 3237). […]

[1] = tested on: circulating CXCL1, CXCL2, CXCL5, CXCL6, CXCL7 and CXCL8; experiment: Circulating cytokine analyses (Luminex, ELISA) in patient serum; assay type: in vivo, human; settings: serial serum samples
Description: Serum samples were collected at baseline, on day 1 of every cycle, and on cycle 1 day 15. CXCL2, CXCL5, CXCL6, CXCL7 and CXCL8 were measured in patient serum (diluted 1:2 except for CXCL7, which was diluted 1:200), then analysed using R&D Systems Luminex discovery assays using the Luminex 200 and interpolated using a five-parameter logistic curve fit. CXCL1 was measured in neat patient serum using the R&D Systems human GROα Quantikine ELISA using the Perkin Elmer Envision 2103 Multilabel plate reader and interpolated using linear regression. The Luminex and ELISA assays were validated to good clinical practice compliance by The ICR and included quality control samples of serum, unspiked or spiked with recombinant protein standard, from healthy volunteer serum in every analytical run. A list of the ELISA reagents is provided in Supplementary Table 9.

[2] = tested on: LPS induced pulmonary neutrophilia; set-up: method as in AZD5069 Investigator Brochure (IB); settings: rat; ref AZD5069 Investigator Brochure (IB); cited from earlier work
plasma protein = tested on: plasma protein; set-up: method as in AZD5069 Investigator Brochure (IB); settings: ref AZD5069 Investigator Brochure (IB); cited from earlier work
[3] = set-up: method as in AZD5069 Investigator Brochure (IB); settings: human mass balance study NCT01332903; ref AZD5069 Investigator Brochure (IB); cited from earlier work
CYP1A2 = tested on: CYP1A2; set-up: method as in AZD5069 Investigator Brochure (IB); settings: at concentrations of up to 100 μmol/L; ref AZD5069 Investigator Brochure (IB); cited from earlier work
CYP2B6 = tested on: CYP2B6; set-up: method as in AZD5069 Investigator Brochure (IB); settings: at concentrations of up to 100 μmol/L; ref AZD5069 Investigator Brochure (IB); cited from earlier work
CYP2D6 = tested on: CYP2D6; set-up: method as in AZD5069 Investigator Brochure (IB); settings: at concentrations of up to 100 μmol/L; ref AZD5069 Investigator Brochure (IB); cited from earlier work
CYP3A4 [4] = tested on: CYP3A4; set-up: method as in AZD5069 Investigator Brochure (IB); settings: at concentrations of up to 100 μmol/L; ref AZD5069 Investigator Brochure (IB); cited from earlier work
[5] = tested on: P-glycoprotein (P-gp; MDR1) transporter mRNA; set-up: method as in AZD5069 Investigator Brochure (IB); settings: human hepatocytes; ref AZD5069 Investigator Brochure (IB); cited from earlier work
[6] = tested on: patients with persistent uncontrolled asthma; set-up: method as in AZD5069 Investigator Brochure (IB); settings: asthma study NCT01704495, 161 patients receiving 45 mg BD, 6-month safety analysis set; ref AZD5069 Investigator Brochure (IB); cited from earlier work
CYP3A4 [7] = tested on: CYP3A4; set-up: method as in AZD5069 Investigator Brochure (IB); settings: co-administration with ketoconazole; ref AZD5069 Investigator Brochure (IB); cited from earlier work
[8] = tested on: gastric emptying and intestinal motility; settings: rat, ref AZD5069 Investigator Brochure (IB), cited from earlier work
rat = settings: in vivo; cited from earlier work
[9] = tested on: patients with advanced solid tumours or metastatic pancreatic ductal adenocarcinoma; settings: ref AZD5069 IB (07 July 2019), cited from earlier work
[10] = 109 patients in two oncology studies

SMILES: C[C@@H](Oc1cc(NS(=O)(=O)N2CCC2)nc(SCc2cccc(F)c2F)n1)[C@@H](O)CO [AZD5069]
- effect on blood neutrophil counts and NLRs (blood neutrophils; 40 mg BD to 320 mg BD): decreased blood neutrophil counts and NLRs in a dose-dependent manner
- on-target reduction in blood neutrophil counts (blood neutrophils; AZD5069 >40 mg BD): at least 30%
- levels of circulating CXCL1, CXCL2 and CXCL8 after treatment [1]: increased in a dose-dependent manner
- levels of circulating CXCL5, CXCL6 and CXCL7 after treatment [1]: did not consistently increase
- effect on LPS induced pulmonary neutrophilia [2]: dose dependent inhibition
- bound to plasma protein (plasma protein): > 96%
- phase II glucose conjugate metabolite in urine [3]: < 5.3 % of dose
- inhibition of CYP1A2 (CYP1A2): not an inhibitor
- inhibition of CYP2B6 (CYP2B6): not an inhibitor
- inhibition of CYP2D6 (CYP2D6): not an inhibitor
- inhibition of CYP3A4 (CYP3A4 [4]): not an inhibitor
- induction of P-glycoprotein (P-gp; MDR1) transporter mRNA [5]: concentration dependent induction
- patients who discontinued the drug due to neutrophil counts 1x10^9/L [6]: 4
- increased exposure (AUC) (CYP3A4 [7]): 2.1 fold
- increased exposure (Cmax) (CYP3A4 [7]): 1.6 fold
- No Observed Effect Level (NOEL) ([8]; gastric emptying and intestinal motility): 60 mg/kg
- dose level with inhibition of gastric emptying and intestinal motility [8]: 350 mg/kg
- tolerated single doses (rat): up to 600 mg/kg
- causally-related AEs that led to treatment discontinuation ([9]; 109 patients in two oncology studies (four patients)): 3.7%
- causally-related AEs of CTCAE ≥Grade 3: fatigue [9, 10]: 4.6%
- causally-related AEs of CTCAE ≥Grade 3: neutropenia [9, 10]: 11.0%
- causally-related AEs of CTCAE ≥Grade 3: neutrophil count decreased [9, 10]: 4.6%
- causally-related AEs: decreased appetite [9, 10]: 20.2%
- causally-related AEs: diarrhoea [9, 10]: 10.1%
- causally-related AEs: fatigue [9, 10]: 22.9%
- causally-related AEs: nausea [9, 10]: 11.9%
- causally-related AEs: neutropenia [9, 10]: 15.6%
- causally-related AEs: neutrophil count decreased [9, 10]: 11.0%
- causally-related SAEs [9, 10]: 9.2%
- fatal AE considered treatment-related [9, 10]: no fatal AE
- most common AEs: decreased appetite [9, 10]: 35.8%
- most common AEs: fatigue [9, 10]: 38.5%
- most common AEs: nausea [9, 10]: 28.4%
- patients with adverse events considered related to study treatment [9, 10]: 73.4%
- neutrophil count decreased ([9]; Study NCT02499328, 40 mg BD dose (4/64)): 6.3%
- neutrophil count decreased ([9]; Study NCT02499328, 80 mg BD dose (6/25)): 24%
